# In article PMC7093131, “Structural and Biomolecular Analyses of Borrelia burgdorferi BmpD Reveal a Substrate-Binding Protein of an ABC-Type Nucleoside Transporter Family” (Infection and Immunity, 2020):
# Target: T1, BmpD (rBmpD; LF-rBmpD) (Borreliella burgdorferi, UniProt P0CL55)
# T1 construct: signal peptide (residues 1 to 17) removed; N-terminal hexahistidine tag (pET-30a(+)) kept; E. coli BL21(DE3)pLys; 39 kDa; monomer; printed end 323 may be in mature count
# T1 sequence (P0CL55 18-341): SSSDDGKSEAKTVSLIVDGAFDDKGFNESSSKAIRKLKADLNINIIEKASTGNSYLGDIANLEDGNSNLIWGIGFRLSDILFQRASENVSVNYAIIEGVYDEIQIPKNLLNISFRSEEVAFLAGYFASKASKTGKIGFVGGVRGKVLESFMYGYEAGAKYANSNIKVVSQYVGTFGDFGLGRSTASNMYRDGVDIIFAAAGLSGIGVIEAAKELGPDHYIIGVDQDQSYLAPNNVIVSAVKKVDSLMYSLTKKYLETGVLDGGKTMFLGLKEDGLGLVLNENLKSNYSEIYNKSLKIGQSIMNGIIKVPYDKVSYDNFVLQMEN
# Experiment: X-ray crystal structure ([…] A) with LC-MS of co-purified ligand; label-free MST on refolded LF-rBmpD
# Type: binding
# Conditions: endogenously bound from E. coli expression, crystals at pH 8.0; MST: 500 nM refolded ligand-free protein, single experiment, no Kd displayed
smiles,measurement,value
Nc1ncnc2c1ncn2[C@@H]1O[C@H](CO)[C@@H](O)[C@H]1O [adenosine],X-ray crystal structure (1.43 A) with LC-MS of co-purified ligand; label-free MS,"the ligand was a purine nucleoside, which was confirmed to be an adenosine"
